From patent publication US8324390B2, “Tetrazole-substituted anthranilamides as pesticides” (Bayer CropScience AG, priority 2008, dated 2012) come the findings set out here.

Where two headings read alike, the source gives them in different places. A value given as a limit tells only on which side of the number the result lay.

The test system of series [1] is green peach aphid (Myzus persicae). The series can be described thus: Myzus test (MYZUPE spray treatment). The format is in vivo. As to conditions: Myzus persicae, foliar, read-out: effect in % (aphids killed). An excerpt:
Solvent: 78 parts by weight of acetone
(§1) Solvent: 78.0 parts by weight of acetone

A short description of series [2]: log P determination by HPLC (EEC Directive 79/831 Annex V.A8). It is filed as physicochemical. As to the method:
The measurements were carried out using an Agilent 1100 LC system with a 50*4.6 Zorbax Eclipse C18 1.8 μm column (oven temperature 55° C., flow rate 2.0 ml/min).
The following mobile phases were used:
Mobile phase A: acetonitrile+1000 μl of formic acid/l
Mobile phase B: Millipore water+900 μl of formic acid/l

Series [3] relates to caterpillars of the armyworm (Spodoptera frugiperda). In words: Spodoptera frugiperda test (SPODFR spray treatment). The format is in vivo. To be noted: Spodoptera frugiperda, foliar, read-out: effect in % (caterpillars killed).
Description: as §1

Series [4] has as its system larvae of the mustard beetle (Phaedon cochleariae). In words: Phaedon test (PHAECO spray treatment). As to conditions: Phaedon cochleariae, in Brassica rapa, foliar, read-out: effect in % (beetle larvae killed).
[5] abbreviates: application rate 100 g/ha, Chinese cabbage leaf discs.
The mark [6] stands for this setting: reversed-phase HPLC, Zorbax Eclipse C18 column, by HPLC according to EEC Directive 79/831 Annex V.A8, read-out: log P.
Setting [7] is: application rate 100 g/ha, maize leaf discs.
Where [8] appears, read: reversed-phase HPLC, Zorbax Eclipse C18 column, determined by HPLC according to EEC Directive 79/831 Annex V.A8, read-out: log P.

For the molecule `Cc1cc(Cl)cc(C(N)=O)c1NC(=O)c1cc(Cn2nnc(C(F)(F)F)n2)nn1-c1ncccc1Br` [Example 330], the pest or weed control at 100 g/ha in series [1] (setting [5]), in series [3] (setting [7]) and in series [4] was ≥ 80% each time. In addition, the chromatographic logP in series [2] (setting [6]) was determined as 2.76.

Consider `Cc1cc(I)cc(C(=O)NC(C)(C)C)c1NC(=O)c1cc(Cn2nnnc2C(F)(F)F)nn1-c1ncccc1Cl` [Example 183], for which the pest or weed control at 100 g/ha in series [1] (in Brassica rapa), in series [3] (in Zea mays) and in series [4] was ≥ 80% each time. The same molecule came in with a chromatographic logP in series [2] (log P) of 3.74.

For `CNC(=O)c1cc(C#N)cc(C)c1NC(=O)c1cc(Cn2nnc(C(F)(F)F)n2)nn1-c1cc(Cl)ccc1Cl` [Example 317], the pest or weed control at 100 g/ha in series [1] (setting [5]), in series [3] (setting [7]) and in series [4] was ≥ 80% in each case. In series [2] (setting [6]), the chromatographic logP is 3.48.

`Cc1cc(C#N)cc(C(=O)NC2CC2)c1NC(=O)c1cc(Cn2nnnc2C(F)(F)C(F)(F)F)nn1-c1ncccc1Cl` [Example 445]: the pest or weed control at 100 g/ha in series [1] (in Brassica rapa), in series [3] (in Zea mays) and in series [4] was ≥ 80% throughout. In series [2] (log P), this molecule displayed a chromatographic logP of 2.95.

`Cc1cc(F)cc(C(=O)NC(C)(C)C)c1NC(=O)c1cc(Cn2nnc(C(F)F)n2)nn1-c1ncccc1Cl` [Example 308]: the pest or weed control at 100 g/ha in series [1] (in Brassica rapa), in series [3] (in Zea mays) and in series [4] was ≥ 80% in each case. Moreover, the chromatographic logP in series [2] (log P) was determined as 2.9.

On to `Cc1cc(C#N)cc(C(=O)NC(C)(C)C)c1NC(=O)c1cc(Cn2nnc(C(F)(F)F)n2)nn1-c1ncccc1F` [Example 407], for which the pest or weed control at 100 g/ha in series [1] (setting [5]), in series [3] (setting [7]) and in series [4] was ≥ 80% in each case. For the same molecule, the chromatographic logP in series [2] (setting [8]) was 3.2.

`Cc1cc(I)cc(C(=O)NCC#N)c1NC(=O)c1cc(Cn2nnc(C(F)F)n2)nn1-c1ncccc1Cl` [Example 281]: the pest or weed control at 100 g/ha in series [1] (in Brassica rapa), in series [3] (in Zea mays) and in series [4] was ≥ 80% each time. The chromatographic logP in series [2] (log P) turned out to be 2.68.

For `Cc1cc(F)cc(C(=O)NC(C)(C)C)c1NC(=O)c1cc(Cn2nnc(C(F)(F)C(F)(F)F)n2)nn1-c1ncccc1Cl` [Example 221], the pest or weed control at 100 g/ha in series [1] (in Brassica rapa), in series [3] (in Zea mays) and in series [4] was ≥ 80% throughout. In series [2] (log P), this molecule yielded a chromatographic logP of 3.88.

For the molecule `Cc1cc(C#N)cc(C(N)=O)c1NC(=O)c1cc(Cn2nnc(C(F)(C(F)(F)F)C(F)(F)F)n2)nn1-c1ncccc1Cl` [Example 372], the pest or weed control at 100 g/ha in series [1] (in Brassica rapa), in series [3] (in Zea mays) and in series [4] was ≥ 80% in each case. The same molecule yielded a chromatographic logP in series [2] (log P) of 3.13.

Take `CSC[C@H](C)NC(=O)c1cc(F)cc(C)c1NC(=O)c1cc(Cn2nnc(C(F)(F)F)n2)nn1-c1ncccc1Cl` [Example 43]: the pest or weed control at 100 g/ha in series [1] (in Brassica rapa), in series [3] (in Zea mays) and in series [4] was ≥ 80% each time. This molecule returned a chromatographic logP in series [2] (log P) of 3.31.

As to `Cc1cc(C#N)cc(C(=O)NC(C)C)c1NC(=O)c1cc(Cn2nnnc2C(F)(F)F)nn1-c1ncccc1Cl` [Example 165], the pest or weed control at 100 g/ha in series [1] (in Brassica rapa), in series [3] (in Zea mays) and in series [4] was ≥ 80% in each case. In addition, in series [2] (log P), the chromatographic logP worked out at 2.72.

With `Cc1cc(Br)cc(C(=O)NC(C)C2CC2)c1NC(=O)c1cc(Cn2nnc(C(F)(F)F)n2)nn1-c1ncccc1Cl` (centres unmarked) [Example 31], the pest or weed control at 100 g/ha in series [1] (in Brassica rapa), in series [3] (in Zea mays) and in series [4] was ≥ 80% in each case. In addition, the chromatographic logP in series [2] (log P) was found to be 3.89.

In the case of `CSC[C@H](C)NC(=O)c1cc(Cl)cc(C)c1NC(=O)c1cc(Cn2nnc(C(F)(C(F)(F)F)C(F)(F)F)n2)nn1-c1ncccc1Cl` [Example 361], the pest or weed control at 100 g/ha in series [1] (setting [5]), in series [3] (setting [7]) and in series [4] was ≥ 80% each time. Besides, the chromatographic logP in series [2] (setting [6]) came out at 4.39.

Take `CNC(=O)c1cc(F)cc(C)c1NC(=O)c1cc(Cn2nnnc2C(F)(F)F)nn1-c1ncccc1Cl` [Example 167]: the pest or weed control at 100 g/ha in series [1] (in Brassica rapa), in series [3] (in Zea mays) and in series [4] was ≥ 80% throughout. This molecule also gave a chromatographic logP in series [2] (log P) of 2.32.

In the case of `Cc1cc(Br)cc(C(N)=O)c1NC(=O)c1cc(Cn2nnnc2C(F)(F)F)nn1-c1ncccc1Br` [Example 498], the pest or weed control at 100 g/ha in series [1] (setting [5]), in series [3] (setting [7]) and in series [4] was ≥ 80% each time. Also, the chromatographic logP in series [2] (setting [8]) was 2.51.

As to `CCNC(=O)c1cc(C#N)cc(C)c1NC(=O)c1cc(Cn2nnnc2C(F)(F)F)nn1-c1ncccc1Br` [Example 478], the pest or weed control at 100 g/ha in series [1] (setting [5]), in series [3] (setting [7]) and in series [4] was ≥ 80% each time. Besides, the chromatographic logP in series [2] (setting [8]) amounted to 2.66.

On to `Cc1cc(C#N)cc(C(=O)NOC(C)C)c1NC(=O)c1cc(Cn2nnc(C(F)(F)F)n2)nn1-c1ncccc1Cl` [Example 398], for which the pest or weed control at 100 g/ha in series [1] (in Brassica rapa), in series [3] (in Zea mays) and in series [4] was ≥ 80% throughout. Further, the chromatographic logP in series [2] (log P) was 2.88.

Take `Cc1cc(I)cc(C(=O)NC(C)C)c1NC(=O)c1cc(Cn2nnnc2C(F)(F)F)nn1-c1ncccc1Cl` [Example 173]: the pest or weed control at 100 g/ha in series [1] (in Brassica rapa), in series [3] (in Zea mays) and in series [4] was ≥ 80% in each case. In series [2] (log P), this molecule showed a chromatographic logP of 3.36.

`CNC(=O)c1cc(C#N)cc(C)c1NC(=O)c1cc(Cn2nnnc2C(F)F)nn1-c1ncccc1Cl` [Example 472]: the pest or weed control at 100 g/ha in series [1] (in Brassica rapa), in series [3] (in Zea mays) and in series [4] was ≥ 80% each time. For the same molecule, in series [2] (log P), the chromatographic logP was 1.97.

With `Cc1cc(Cl)cc(C(=O)NC(C)C)c1NC(=O)c1cc(Cn2nnc(C(F)(F)F)n2)nn1-c1ncccc1Br` [Example 334], the pest or weed control at 100 g/ha in series [1] (setting [5]), in series [3] (setting [7]) and in series [4] was ≥ 80% throughout. The chromatographic logP in series [2] (setting [6]) is 3.49.

On to `Cc1cc(Cl)cc(C(=O)NC2CC2)c1NC(=O)c1cc(Cn2nnc(C(F)(F)F)n2)nn1-c1ncccc1Br` [Example 335], for which the pest or weed control at 100 g/ha in series [1] (setting [5]), in series [3] (setting [7]) and in series [4] was ≥ 80% in each case. Moreover, in series [2] (setting [6]), the chromatographic logP came to 3.25.

In the case of `CNC(=O)c1cc(C#N)cc(C)c1NC(=O)c1cc(Cn2nnc(C3CC3)n2)nn1-c1ncccc1Cl` [Example 102], the pest or weed control at 100 g/ha in series [1] (in Brassica rapa), in series [3] (in Zea mays) and in series [4] was ≥ 80% each time. The molecule further showed a chromatographic logP in series [2] (log P) of 2.15.

For `CNC(=O)c1cc(C#N)cc(C)c1NC(=O)c1cc(Cn2nnc(C(F)(F)C(F)(F)F)n2)nn1-c1ccccc1Cl` [Example 430], the pest or weed control at 100 g/ha in series [1] (setting [5]), in series [3] (setting [7]) and in series [4] was ≥ 80% each time. In addition, in series [2] (setting [8]), the chromatographic logP is 3.43.
